# Activity calls are given as the source filed them. No rule for the calls is given here. Numbered stars: 1 amine (or outer) side, 2 acyl side, 3 side chain; on linkers, the order of the positions; unused ones are H or OH. Bridge positions count the residues as written; N and C are the ends. Square brackets hold non-standard residues; d marks the D form. Peptide text beside a SMILES is read from it. I, II: the chains in the order shown. Actinocin(9to1) = Cc1c2oc3c(C)ccc(C(=O)[*:1])c3nc-2c(C(=O)[*:2])c(N)c1=O; NMeV = CN[C@H](C(=O)O)C(C)C; Sar = CNCC(=O)O
# Tested on: rodent lifetime carcinogenesis bioassay, tumor incidence TD50
# Assay: carcinogenic potency in animals, long-term in vivo studies, CPDB compilation (AID 1745844)
smiles,measurement,setting,value
OCl,carcinogen call,"mouse, strain B6C3F1, females, in drinking water, site: any site (literature study), lesion: several types, types named in the paper, dosed 103 weeks, study length 106 weeks",negative (inactive)
same,carcinogen call,"mouse, strain B6C3F1, females, in drinking water, site: liver, lesion: hepatocellular carcinoma, dosed 103 weeks, study length 106 weeks",negative (inactive)
same,carcinogen call,"mouse, strain B6C3F1, females, in drinking water, site: liver, lesion: several types, types named in the paper, dosed 103 weeks, study length 106 weeks",negative (inactive)
same,TD50,"mouse, strain B6C3F1, females, in drinking water, site: lung, lesion: several types, types named in the paper, dosed 103 weeks, study length 106 weeks",22900 mg/kg/day (inactive)
same,TD50,"mouse, strain B6C3F1, males, in drinking water, site: any site (literature study), lesion: several types, types named in the paper, dosed 103 weeks, study length 106 weeks",350 mg/kg/day (inactive)
same,carcinogen call,"mouse, strain B6C3F1, males, in drinking water, site: liver, lesion: hepatocellular carcinoma, dosed 103 weeks, study length 106 weeks",negative (inactive)
same,TD50,"mouse, strain B6C3F1, males, in drinking water, site: liver, lesion: several types, types named in the paper, dosed 103 weeks, study length 106 weeks",876 mg/kg/day (inactive)
same,TD50,"mouse, strain B6C3F1, males, in drinking water, site: lung, lesion: several types, types named in the paper, dosed 103 weeks, study length 106 weeks",2040 mg/kg/day (inactive)
same,TD50,"rat, strain F344/DuCrj, females, in drinking water, site: liver, lesion: several types, types named in the paper, dosed 104 weeks, study length 112 weeks",6300 mg/kg/day (inactive)
same,carcinogen call,"rat, strain F344/DuCrj, males, in drinking water, site: liver, lesion: cholangioma, dosed 104 weeks, study length 112 weeks",negative (inactive)
same,carcinogen call,"rat, strain F344/DuCrj, males, in drinking water, site: liver, lesion: fibrous histiocytoma, dosed 104 weeks, study length 112 weeks",negative (inactive)
same,carcinogen call,"rat, strain F344/DuCrj, males, in drinking water, site: liver, lesion: several types, types named in the paper, dosed 104 weeks, study length 112 weeks",negative (inactive)
C=C(F)F,TD50,"rat, strain Sprague-Dawley, females, by gavage, site: fat, lesion: lipoma, dosed 52 weeks, study length 141 weeks",60.3 mg/kg/day
same,TD50,"rat, strain Sprague-Dawley, females, by gavage, site: fat, lesion: liposarcoma, dosed 52 weeks, study length 141 weeks",122 mg/kg/day
same,TD50,"rat, strain Sprague-Dawley, males, by gavage, site: fat, lesion: liposarcoma, dosed 52 weeks, study length 141 weeks",38.8 mg/kg/day
C=CCN(N)CC=C,TD50,"mouse, strain Swiss albino, females, in drinking water, site: forestomach, lesion: squamous-cell papilloma, dosed 100 weeks, study length 100 weeks",332 mg/kg/day
same,carcinogen call,"mouse, strain Swiss albino, females, in drinking water, site: liver, lesion: angioma, dosed 100 weeks, study length 100 weeks",negative (inactive)
same,carcinogen call,"mouse, strain Swiss albino, females, in drinking water, site: liver, lesion: angiosarcoma, dosed 100 weeks, study length 100 weeks",negative (inactive)
same,TD50,"mouse, strain Swiss albino, females, in drinking water, site: lung, lesion: adenocarcinoma, dosed 100 weeks, study length 100 weeks",112 mg/kg/day
same,TD50,"mouse, strain Swiss albino, females, in drinking water, site: lung, lesion: adenoma, dosed 100 weeks, study length 100 weeks",37.8 mg/kg/day
same,TD50,"mouse, strain Swiss albino, females, in drinking water, site: lung, lesion: several types, types named in the paper, dosed 100 weeks, study length 100 weeks",34.9 mg/kg/day
same,TD50,"mouse, strain Swiss albino, males, in drinking water, site: forestomach, lesion: squamous-cell papilloma, dosed 93 weeks, study length 93 weeks",48.1 mg/kg/day
same,carcinogen call,"mouse, strain Swiss albino, males, in drinking water, site: liver, lesion: angioma, dosed 93 weeks, study length 93 weeks",negative (inactive)
same,TD50,"mouse, strain Swiss albino, males, in drinking water, site: liver, lesion: angiosarcoma, dosed 93 weeks, study length 93 weeks",723 mg/kg/day (inactive)
same,TD50,"mouse, strain Swiss albino, males, in drinking water, site: lung, lesion: adenocarcinoma, dosed 93 weeks, study length 93 weeks",38.9 mg/kg/day
same,TD50,"mouse, strain Swiss albino, males, in drinking water, site: lung, lesion: adenoma, dosed 93 weeks, study length 93 weeks",29.8 mg/kg/day
same,TD50,"mouse, strain Swiss albino, males, in drinking water, site: lung, lesion: several types, types named in the paper, dosed 93 weeks, study length 93 weeks",25.7 mg/kg/day
C=CC(=O)NCO,TD50,"mouse, strain B6C3F1, females, by gavage, site: Harderian gland + liver + lung + ovary, lesion: adenoma + adenoma, bilateral + hepatocellular adenoma + alveolar/bronchiolar adenoma + alveolar/bronchiolar carcinoma + granulosa-, dosed 103 weeks, study length 105 weeks",27.8 mg/kg/day
same,TD50,"mouse, strain B6C3F1, females, by gavage, site: Harderian gland, lesion: adenoma + adenoma, bilateral + carcinoma, dosed 103 weeks, study length 105 weeks",44.6 mg/kg/day
same,TD50,"mouse, strain B6C3F1, females, by gavage, site: Harderian gland, lesion: adenoma + adenoma, bilateral, dosed 103 weeks, study length 105 weeks",55.5 mg/kg/day
same,TD50,"mouse, strain B6C3F1, females, by gavage, site: any site (literature study), lesion: several types, types named in the paper, dosed 103 weeks, study length 105 weeks",30.9 mg/kg/day
same,TD50,"mouse, strain B6C3F1, females, by gavage, site: liver, lesion: hepatocellular adenoma + hepatocellular carcinoma + neoplastic nodule, dosed 103 weeks, study length 105 weeks",74.8 mg/kg/day
same,TD50,"mouse, strain B6C3F1, females, by gavage, site: liver, lesion: hepatocellular adenoma + hepatocellular carcinoma, dosed 103 weeks, study length 105 weeks",74.8 mg/kg/day
same,TD50,"mouse, strain B6C3F1, females, by gavage, site: liver, lesion: hepatocellular adenoma, dosed 103 weeks, study length 105 weeks",66.9 mg/kg/day
same,TD50,"mouse, strain B6C3F1, females, by gavage, site: lung, lesion: alveolar/bronchiolar adenoma + alveolar/bronchiolar carcinoma, dosed 103 weeks, study length 105 weeks",111 mg/kg/day
same,TD50,"mouse, strain B6C3F1, females, by gavage, site: ovary, lesion: granulosa-cell tumor, benign, dosed 103 weeks, study length 105 weeks",119 mg/kg/day
same,TD50,"mouse, strain B6C3F1, males, by gavage, site: Harderian gland + liver + lung, lesion: adenoma + hepatocellular adenoma + hepatocellular carcinoma + alveolar/bronchiolar adenoma + alveolar/bronchiolar carcinoma, dosed 103 weeks, study length 105 weeks",13.3 mg/kg/day
same,TD50,"mouse, strain B6C3F1, males, by gavage, site: Harderian gland, lesion: adenoma + carcinoma, dosed 103 weeks, study length 105 weeks",17.4 mg/kg/day
same,TD50,"mouse, strain B6C3F1, males, by gavage, site: Harderian gland, lesion: adenoma, dosed 103 weeks, study length 105 weeks",17.5 mg/kg/day
same,TD50,"mouse, strain B6C3F1, males, by gavage, site: any site (literature study), lesion: several types, types named in the paper, dosed 103 weeks, study length 105 weeks",22.3 mg/kg/day
same,TD50,"mouse, strain B6C3F1, males, by gavage, site: liver, lesion: hepatocellular adenoma + hepatocellular carcinoma + neoplastic nodule, dosed 103 weeks, study length 105 weeks",29.4 mg/kg/day
same,TD50,"mouse, strain B6C3F1, males, by gavage, site: liver, lesion: hepatocellular adenoma + hepatocellular carcinoma, dosed 103 weeks, study length 105 weeks",29.4 mg/kg/day
same,TD50,"mouse, strain B6C3F1, males, by gavage, site: liver, lesion: hepatocellular adenoma, dosed 103 weeks, study length 105 weeks",50.2 mg/kg/day
same,TD50,"mouse, strain B6C3F1, males, by gavage, site: liver, lesion: hepatocellular carcinoma, dosed 103 weeks, study length 105 weeks",63.4 mg/kg/day
same,TD50,"mouse, strain B6C3F1, males, by gavage, site: lung, lesion: alveolar/bronchiolar adenoma + alveolar/bronchiolar carcinoma, dosed 103 weeks, study length 105 weeks",38.5 mg/kg/day
same,TD50,"mouse, strain B6C3F1, males, by gavage, site: lung, lesion: alveolar/bronchiolar adenoma, dosed 103 weeks, study length 105 weeks",66 mg/kg/day
same,TD50,"mouse, strain B6C3F1, males, by gavage, site: lung, lesion: alveolar/bronchiolar carcinoma, dosed 103 weeks, study length 105 weeks",75.1 mg/kg/day
same,carcinogen call,"rat, strain Fischer 344, females, by gavage, site: any site (literature study), lesion: several types, types named in the paper, dosed 103 weeks, study length 105 weeks",negative (inactive)
same,TD50,"rat, strain Fischer 344, males, by gavage, site: any site (literature study), lesion: several types, types named in the paper, dosed 103 weeks, study length 105 weeks",3120 mg/kg/day
same,TD50,"rat, strain Fischer 344, males, by gavage, site: skin, lesion: keratoacanthoma, dosed 103 weeks, study length 105 weeks",13 mg/kg/day (inactive)
Nc1nnc(-c2ccc([N+](=O)[O-])o2)o1,TD50,"rat, strain Sprague-Dawley, females, in feed, site: any site (literature study), lesion: several types, types named in the paper, dosed 46 weeks, study length 66 weeks",2.74 mg/kg/day
same,TD50,"rat, strain Sprague-Dawley, females, in feed, site: forestomach, lesion: squamous-cell papilloma, dosed 46 weeks, study length 66 weeks",37 mg/kg/day
same,TD50,"rat, strain Sprague-Dawley, females, in feed, site: kidney/pelvis, lesion: transitional-cell carcinoma, dosed 46 weeks, study length 66 weeks",45.2 mg/kg/day
same,TD50,"rat, strain Sprague-Dawley, females, in feed, site: lung, lesion: alveolar-cell carcinoma, dosed 46 weeks, study length 66 weeks",242 mg/kg/day
same,TD50,"rat, strain Sprague-Dawley, females, in feed, site: mammary gland, lesion: adenocarcinoma, dosed 46 weeks, study length 66 weeks",7.98 mg/kg/day
same,TD50,"rat, strain Sprague-Dawley, females, in feed, site: mammary gland, lesion: several types, types named in the paper, dosed 46 weeks, study length 66 weeks",3.67 mg/kg/day
Cc1c(O)cc2c(c1C)OC(C)(CCCC(C)CCCC(C)CCCC(C)C)CC2 (stereo not drawn),TD50,"mouse, strain B6C3F1, males, in feed, site: liver, lesion: hepatocellular carcinoma, dosed 96 weeks, study length 96 weeks",5220 mg/kg/day
same,TD50,"mouse, strain B6C3F1, males, in feed, site: liver, lesion: several types, types named in the paper, dosed 96 weeks, study length 96 weeks",3610 mg/kg/day
"Cc1c2oc3c(C)ccc(C(=O)N[C@@H]4C(=O)N[C@H](C(C)C)C(=O)N5CCC[C@H]5C(=O)N(C)CC(=O)N(C)[C@@H](C(C)C)C(=O)O[C@@H]4C)c3nc-2c(C(=O)N[C@@H]2C(=O)N[C@H](C(C)C)C(=O)N3CCC[C@H]3C(=O)N(C)CC(=O)N(C)[C@@H](C(C)C)C(=O)O[C@@H]2C)c(N)c1=O (I: T[dV]P[Sar][NMeV] / II: T[dV]P[Sar][NMeV]; ester I:1-I:C, II:1-II:C; linker I:N-II:N via Actinocin(9to1))",TD50,"rat, strain Charles River CD (Sprague-Dawley), females, i.p., site: any site (literature study), lesion: malignant tumor, dosed 26 weeks, study length 78 weeks",0.00121 mg/kg/day
same,TD50,"rat, strain Charles River CD (Sprague-Dawley), females, i.p., site: any site (literature study), lesion: several types, types named in the paper, dosed 26 weeks, study length 78 weeks",0.00145 mg/kg/day
same,TD50,"rat, strain Charles River CD (Sprague-Dawley), females, i.p., site: lung, lesion: adenoma, dosed 26 weeks, study length 78 weeks",0.0501 mg/kg/day
same,TD50,"rat, strain Charles River CD (Sprague-Dawley), females, i.p., site: peritoneum, lesion: sarcoma, dosed 26 weeks, study length 78 weeks",0.00199 mg/kg/day
same,TD50,"rat, strain Charles River CD (Sprague-Dawley), males, i.p., site: all sites, lesion: lymphosarcoma, dosed 26 weeks, study length 78 weeks",0.0201 mg/kg/day
same,TD50,"rat, strain Charles River CD (Sprague-Dawley), males, i.p., site: all sites, lesion: plasmacytoma, dosed 26 weeks, study length 78 weeks",0.0201 mg/kg/day
same,TD50,"rat, strain Charles River CD (Sprague-Dawley), males, i.p., site: any site (literature study), lesion: malignant tumor, dosed 26 weeks, study length 78 weeks",0.000708 mg/kg/day
same,TD50,"rat, strain Charles River CD (Sprague-Dawley), males, i.p., site: any site (literature study), lesion: several types, types named in the paper, dosed 26 weeks, study length 78 weeks",0.000501 mg/kg/day
same,TD50,"rat, strain Charles River CD (Sprague-Dawley), males, i.p., site: liver, lesion: hemangioma, dosed 26 weeks, study length 78 weeks",0.0407 mg/kg/day
same,TD50,"rat, strain Charles River CD (Sprague-Dawley), males, i.p., site: peritoneum, lesion: sarcoma, dosed 26 weeks, study length 78 weeks",0.000769 mg/kg/day

# From PubChem BioAssay AID1745844 (Carcinogenic Potency Database (CPDB), 2022)
